Test system: patients with acute non-cardioembolic ischemic stroke
Details: 50 mg daily
Experimental: All participants were required to undergo at least two MRIs that met study requirements. In addition to the baseline MRI (obtained after the index stroke either before randomization or within 72 h after randomization), participants underwent a final study MRI at 26 weeks or as soon as possible after early termination of assigned study treatment. Patients were followed up for at least 26 weeks and up to 52 weeks and assessed for the occurrence of safety, efficacy, and adverse events at 2, 4, 8, 13, 20, 26, 32, 39, 46, and 52 (end of treatment) weeks after randomization, and again 2 weeks after the end of treatment visit. Adherence to assigned therapy was assessed by means of interview and pill count at each clinic visit.
The primary safety outcome was the composite of major bleeding and clinically relevant non-major bleeding, according to the criteria of the International Society on Thrombosis and Haemostasis (ISTH). […] Additional prespecified exploratory safety outcomes included haemorrhagic transformation within the qualifying stroke detected by baseline MRI performed post-study drug or on follow-up study MRIs based on the Heidelberg classification of severity (haemorrhagic infarct 1 or 2 or parenchymal haematoma 1 or 2). […]

For `CC[C@@H](C(=O)Nc1ccc(C(N)=O)c(F)c1)n1cc(OC)c(-c2cc(Cl)ccc2-n2cc(C(F)(F)F)nn2)cc1=O` [Compound A, (4S)-2^4-chloro-4-ethyl-7^3-fluoro-3^5-methoxy-3^2,5-dioxo-14-(trifluoromethyl)-3^2H-6-aza-3(4,1)-pyridina-1(1)-[1,2,3]triazola-2(1,2),7(1)-dibenzenaheptaphane-7^4-carboxamide], the “Primary intracerebral haemorrhages, % participants” value was 1% and the “Primary intracerebral haemorrhages, n participants” value was “three”.

From US20240316019A1 (Bayer Aktiengesellschaft, priority 2023, published 2024)
